Measurements: patent publication EP1954678B1, “NOVEL NK1 AND NK2 ANTAGONISTS” (Abbott Products GmbH, priority 2005, dated 2007)
Where two headings read alike, the source gives them in different places.

Key:
[1] = molecular target: T1, cloned human NK2 receptors (Homo sapiens, UniProt P21452); test: Ca2+ measurements using FLIPR for NK2 activity in CHO cells; format: cell-based; details: NKA 10^-7 M as agonist; compound applied 7 min before; pA2 calculated from IC50
T1 construct: expressed in transfected cells
T1 sequence (P21452 1-398): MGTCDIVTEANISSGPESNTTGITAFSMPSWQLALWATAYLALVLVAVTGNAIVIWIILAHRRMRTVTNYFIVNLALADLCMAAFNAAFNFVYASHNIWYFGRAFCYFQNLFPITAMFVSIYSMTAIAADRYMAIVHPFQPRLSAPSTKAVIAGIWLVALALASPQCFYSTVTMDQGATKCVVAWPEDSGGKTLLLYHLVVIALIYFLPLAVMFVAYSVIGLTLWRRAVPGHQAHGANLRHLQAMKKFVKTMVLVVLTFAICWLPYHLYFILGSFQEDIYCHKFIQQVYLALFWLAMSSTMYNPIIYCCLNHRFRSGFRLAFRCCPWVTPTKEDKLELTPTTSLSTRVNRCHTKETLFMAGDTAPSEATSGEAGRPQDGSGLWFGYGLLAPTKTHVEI
Source text: (§1) The NK receptor is coupled to Gq.
(§2) All steps were done under sterile conditions. […] The results are summarized in table 5: Table 5: pA2 data for NK1 and NK2: […]

NK2 receptors [2] = molecular target: T2, NK2 receptors (Cavia porcellus, UniProt Q64077); test: Functional NK2 antagonism on isolated guinea pig gall-bladder preparations (NKA induced contraction); set-up: from tissue; host or cells: guinea pig gall-bladder preparations; species or system Pirbright-White guinea pigs
T2 sequence (Q64077 1-402): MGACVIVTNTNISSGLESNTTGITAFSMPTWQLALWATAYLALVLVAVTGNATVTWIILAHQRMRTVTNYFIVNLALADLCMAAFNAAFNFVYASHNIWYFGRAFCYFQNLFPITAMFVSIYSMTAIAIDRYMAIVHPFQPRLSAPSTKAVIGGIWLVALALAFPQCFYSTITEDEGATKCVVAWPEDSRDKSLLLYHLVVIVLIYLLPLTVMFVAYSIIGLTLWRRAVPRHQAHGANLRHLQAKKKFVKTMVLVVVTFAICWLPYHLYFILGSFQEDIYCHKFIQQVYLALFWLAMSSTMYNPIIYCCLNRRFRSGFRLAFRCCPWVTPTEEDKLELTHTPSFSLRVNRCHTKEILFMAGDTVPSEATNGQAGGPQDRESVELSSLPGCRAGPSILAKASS
Procedure: The NK2 receptor-antagonising action of the test substances was determined on isolated gall-bladder preparations from Pirbright-White guinea pigs, held in an oxygen-saturated nutrient solution. To this end, the preparations were fastened on one hand in the nutrient solution to organ holders and on the other hand on a force meter by a thread.
The concentration of the test substances was increased iteratively in the subsequent experiments as a function of the result in logarithmic whole or half steps, until at least one concentration above or below 50% inhibition of contraction was determined (up to at most 10^-5 mol/l). For each concentration, the average value of inhibition of contraction was calculated from 2 to 4 preparations. In each case, the concentration of half-maximum inhibition (IC50) per test substance was calculated as characteristic variable.

NK2 receptors [3] = molecular target: T2, NK2 receptors; test: NK-2-receptor-antagonistic effectiveness in vivo in anaesthetised guinea pigs (NKA test stimulus: late hypotension, bronchoconstriction, colonic pressure); set-up: from tissue; host or cells: whole anaesthetised guinea pig (in vivo); species or system Pirbright-White guinea pigs; details: for ED50: guinea pig; for oral activity as NK2 receptor antagonist: result in words, oral administration
Source text: (§3) The NK-1- and NK-2-antagonistic activities of the test substances were investigated in anaesthetised guinea pigs in each case after intravenous (= i.v.) and oral (= p.o.) administration in vivo. With the present test model it is possible to detect both NK-2-antagonistic effects in three different organ systems (respiratory tracts, colon and circulation) and NK-1-antagonistic effects (rapid drop in blood pressure) in an animal simultaneously.
(§4) Pirbright-White guinea pigs of a body weight of 500-700 g were anaesthetised with ketamine/xylazine (67/13 mg/kg subcutaneously, initial dose, further doses administered as required). The animals were provided with an intravenous catheter in order to administer the substance and an intra-arterial catheter to measure the blood pressure. The animals were artificially ventilated via a tracheal cannula and the respiratory pressure was recorded by means of a pressure transducer. A balloon was introduced into the distal colon of the animals for manometric recording of colon motility by means of a pressure transducer. Blood pressure, heart rate, respiratory pressure and colonic pressure were measured continuously for each animal and plotted on a recorder and by means of a digital data-processing system. […] The second phase of delayed hypotension (= phase of maximum hypotension after 2-5 min.) on the other hand is mediated via NK-2 receptors, since they can be blocked by specific NK-2 receptor antagonists. […] Table 6: NK-1- and NK-2-receptor-antagonistic effective-ness of the test substances of Formula I on guinea pigs in vivo after intravenous administration
(§5) These ED50 values obtained from cumulative dose effect curves are plotted in table 6.
(§6) The antagonistic effects of the test substances were then determined as "area under the curve" ("AUC") over the investigation period after administration of the test substances (1 - 180 min after administration) and the ED50 values after oral administration obtained therefrom were plotted in table 7. Table 7: NK-1- and NK-2-receptor-antagonistic effective-ness of the test substances of Formula I on guinea pigs in vivo after oral administration

NK1 receptors = NK1 receptors (Cavia porcellus, UniProt P30547); test: NK-1-receptor-antagonistic effectiveness in vivo in anaesthetised guinea pigs (NKA test stimulus, early hypotension); set-up: from tissue; host or cells: whole anaesthetised guinea pig (in vivo); species or system Pirbright-White guinea pigs; details: for ED50: guinea pig; for oral activity as NK1 receptor antagonist: result in words, oral administration
Sequence of NK1 receptors (P30547 whole entry): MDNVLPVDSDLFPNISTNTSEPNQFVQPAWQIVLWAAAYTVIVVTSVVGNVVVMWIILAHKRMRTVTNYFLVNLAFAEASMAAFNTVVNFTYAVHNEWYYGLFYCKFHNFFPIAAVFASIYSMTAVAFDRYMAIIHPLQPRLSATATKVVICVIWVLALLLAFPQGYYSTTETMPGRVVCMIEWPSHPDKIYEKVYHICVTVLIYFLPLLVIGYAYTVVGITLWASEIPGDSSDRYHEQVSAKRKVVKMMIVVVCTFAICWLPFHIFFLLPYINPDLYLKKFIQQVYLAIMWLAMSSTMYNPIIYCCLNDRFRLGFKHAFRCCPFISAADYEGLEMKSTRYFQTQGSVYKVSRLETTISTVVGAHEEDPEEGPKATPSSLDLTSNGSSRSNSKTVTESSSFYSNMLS
Source text: as §3, §4, §5, §6

[4] = molecular target: T3, cloned human NK1 receptors (Homo sapiens, UniProt P25103); test: Ca2+ measurements using FLIPR for NK1 activity in CHO cells; format: cell-based; details: substance P 10^-8 M as agonist; compound applied 7 min before; pA2 calculated from IC50
T3 construct: expressed in transfected cells
T3 sequence (P25103 whole entry): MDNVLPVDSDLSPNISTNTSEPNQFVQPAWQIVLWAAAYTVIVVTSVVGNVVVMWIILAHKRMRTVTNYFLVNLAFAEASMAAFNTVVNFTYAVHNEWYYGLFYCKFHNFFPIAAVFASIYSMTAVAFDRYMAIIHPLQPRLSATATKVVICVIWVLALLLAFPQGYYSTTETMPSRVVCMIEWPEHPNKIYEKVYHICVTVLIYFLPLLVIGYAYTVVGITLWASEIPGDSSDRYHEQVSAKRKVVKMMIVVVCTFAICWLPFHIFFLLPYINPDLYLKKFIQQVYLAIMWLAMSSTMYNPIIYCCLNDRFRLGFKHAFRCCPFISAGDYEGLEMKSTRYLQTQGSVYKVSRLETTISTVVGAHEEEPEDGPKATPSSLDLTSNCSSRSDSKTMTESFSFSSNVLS
Source text: as §1, §2

[5] = iv, read-out: ED50 iv after 1 min (cumulative) NK2 (broncho-constriction)
[6] = iv, read-out: ED50 iv after 1 min (cumulative) NK2 (colonic motility)
[7] = iv, read-out: ED50 iv after 1 min (cumulative) NK2 (late hypotension)
[8] = oral, from AUC of antagonistic effect 1 - 180 min after administration, read-out: ED50 AUC1-180 min oral NK2 (broncho-constriction)
[9] = oral, from AUC of antagonistic effect 1 - 180 min after administration, read-out: ED50 AUC1-180 min oral NK2 (colonic motility)
[10] = oral, from AUC of antagonistic effect 1 - 180 min after administration, read-out: ED50 AUC1-180 min oral NK2 (late hypotension)
[11] = iv, read-out: ED50 iv after 1 min (cumulative) NK1 (early hypotension)
[12] = oral, from AUC of antagonistic effect 1 - 180 min after administration, read-out: ED50 AUC1-180 min oral NK1 (early hypotension)

SMILES	Kb [1] [µM]	IC50 (NK2 receptors [2]) [µM]	ED50 (NK2 receptors [3]; [5]) [µmol/kg]	ED50 (NK2 receptors [3]; [6]) [µmol/kg]	ED50 (NK2 receptors [3]; [7]) [µmol/kg]	ED50 (NK2 receptors [3]; [8]) [µmol/kg]	ED50 (NK2 receptors [3]; [9]) [µmol/kg]	ED50 (NK2 receptors [3]; [10]) [µmol/kg]	oral activity as NK2 receptor antagonist (NK2 receptors [3])	ED50 (NK1 receptors; [11]) [µmol/kg]	ED50 (NK1 receptors; [12]) [µmol/kg]	oral activity as NK1 receptor antagonist (NK1 receptors)	Kb [4] [µM]
CN(C[C@@H](CCN1CCN([C@@H](c2ccco2)[C@H](O)CO)CC1)c1ccc(Cl)c(Cl)c1)C(=O)c1cc(C#N)cc2ccccc12 [Compound 1, 3-cyano-N-[(2S)-2-(3,4-dichlorophenyl)-4-{4-[(1R,2S)-1-(2-furyl)-2,3-dihydroxypropyl]piperazin-1-yl}butyl]-N-methyl-1-naphthamide]	0.01	0.002	0.321	0.027	0.643	3.1	5.5	3.1	active orally	0.077	22.9	active orally	0.00126
CN(C[C@@H](CCN1CCN([C@@H](c2ccco2)[C@H](O)[C@@H](O)[C@H](O)CO)CC1)c1ccc(Cl)c(Cl)c1)C(=O)c1cc(C#N)cc2ccccc12 [Compound 2, 3-cyano-N-[(2S)-2-(3,4-dichlorophenyl)-4-{4-[(1R,2S,3R,4R)-1-(2-furyl)-2,3,4,5-tetrahydroxypentyl]piperazin-1-yl}butyl]-N-methyl-1-naphthamide]	–	0.02	< 0.01	0.085	0.106	11.7	6	14.8	active orally	< 0.01	15.2	active orally	–
CN(C[C@@H](CCN1CCN(C(CO)(CO)c2ccco2)CC1)c1ccc(Cl)c(Cl)c1)C(=O)c1cc(C#N)cc2ccccc12 [Compound 6, 3-cyano-N-[(2S)-2-(3,4-dichlorophenyl)-4-{4-[1-(2-furyl)-2-hydroxy-1-(hydroxymethyl)ethyl]piperazin-1-yl}butyl]-N-methyl-1-naphthamide]	–	0.0398	0.595	0.05	0.282	–	–	–	–	0.071	–	–	–
CN(C[C@@H](CCN1CCN([C@@H](c2ccco2)[C@H]2COC(=O)O2)CC1)c1ccc(Cl)c(Cl)c1)C(=O)c1cc(C#N)cc2ccccc12 [Compound 11, 3-cya no-N-[(2S)-2-(3,4-dichlorophenyl)-4-(4-{(R)-2-furyl[(4S)-2-oxo-1,3-dioxolan-4-yl]methyl}piperazin-1-yl)butyl]-N-methyl-1-naphthamide]	–	0.0158	0.13	0.132	0.145	–	–	–	–	0.093	–	–	–
